According to patent US9381349B2, “Apparatus for treating cerebral neurovascular disorders including headaches by neural stimulation” (priority 1997, dated 2016):

Test system: recurring migraine
Assay: Dorsonasal ropivacaine therapy in recurring migraine: frequency and severity of subsequent episodes (Example 3)
Format: in vivo, human
From the text: The following studies relate to the methods of decreasing the frequency and severity of CNvD episodes described herein, and involved three patients.
A patient, herein designated “patient 3-1” was afflicted with recurring severe migraine, wherein acute migraine episodes were associated with nausea and visual changes. Patient 3-1 generally rated the severity of head pain associated with acute migraine episodes in the range from five to eight using the pain scale described herein. Patient 3-1 experienced, on average, about one acute migraine episode per week prior to beginning dorsonasal ropivacaine therapy. In addition, patient 3-1 also usually experienced about one severe acute migraine episode per month, associated with menses, wherein the severity of head pain was from eight to ten using the pain scale described herein.
Ropivacaine was dorsonasally administered to patient 3-1 using the cotton swab technique described herein. The patient has consistently experienced relief from all of the symptoms of their CNvD episodes within 3 to 5 minutes following administration of ropivacaine, regardless of whether the episodes are associated with menses.
A person, herein designated, “patient 3-2,” was afflicted with recurring migraines. […] Head pain associated with the patient's acute migraine episodes is typically preceded by visual changes which they describe as a curtain-like wave of scotomata moving from left to right until they are unable to see. The patient then becomes disoriented with respect to time and place and must sit or lay down. Following these prodromal symptoms, a severe headache, rated 10 on the pain scale described herein, begins and typically endures for 45 to 60 minutes. The patient remains completely debilitated for the duration of the headache, unable to move about or walk. As the headache subsides, the patient's vision returns, and the patient is left feeling exhausted, as if they had not slept the night before.
A person, herein designated, “patient 3-3,” experienced about 3 to 5 recurring migraine episodes per week prior to beginning dorsonasal ropivacaine therapy. The initial severity of these headaches was reported to be 10, using the pain scale described herein. When ropivacaine was administered, using the saturated swab method described herein, to patient 3-3 during a headache episode, the patient reported a decrease in head pain from a rating of 10 to a rating of 0 or 1 within 10 minutes following ropivacaine administration. Furthermore, after three months of dorsonasal ropivacaine treatment, patient 3-3 reported that the frequency of their headache episodes had decreased to about 1 to 2 times weekly and that the initial severity of their headaches was in the range from about 7 to about 8, rather than 10.

[1] = patient 3-1, about three or four months after initiation

Compound: CCCN1CCCC[C@H]1C(=O)Nc1c(C)cccc1C [Ropivacaine, ropivacaine]
- Frequency of subsequent acute migraine episodes [1]: decrease in the frequency with which acute migraine episodes not associated with menses occurred
- Initial severity of subsequent acute migraine episodes [1]: decrease in the initial severity of acute migraine episodes not associated with menses
- Frequency of headaches after therapy (patient 3-2, after four to six months of therapy): approximately one headache every two months or longer
- Initial headache pain (prior to administration) after therapy (patient 3-2, after four to six months of therapy, previously about 10): ≤ 2
- Time to complete resolution of headache (patient 3-2, nasal spray): completely resolved by fifteen minutes
- Headache pain intensity after administration (patient 3-2, nasal spray, from 10, within one to two minutes, pain scale 0-10): 2-3
